What is called IC50 is the point on the concentration scale where inhibition reaches its midpoint. High values mean weaker potency in that assay, low ones greater potency in that assay.

The test system of experiment [1] is MCF-7 (Homo sapiens). As to the kind of experiment: Cytotoxicity against MCF-7 cells at 5 uM.
A further experiment has as its target T1, Estrogen receptor (Homo sapiens, UniProt P03372).
T1 sequence (P03372 whole entry): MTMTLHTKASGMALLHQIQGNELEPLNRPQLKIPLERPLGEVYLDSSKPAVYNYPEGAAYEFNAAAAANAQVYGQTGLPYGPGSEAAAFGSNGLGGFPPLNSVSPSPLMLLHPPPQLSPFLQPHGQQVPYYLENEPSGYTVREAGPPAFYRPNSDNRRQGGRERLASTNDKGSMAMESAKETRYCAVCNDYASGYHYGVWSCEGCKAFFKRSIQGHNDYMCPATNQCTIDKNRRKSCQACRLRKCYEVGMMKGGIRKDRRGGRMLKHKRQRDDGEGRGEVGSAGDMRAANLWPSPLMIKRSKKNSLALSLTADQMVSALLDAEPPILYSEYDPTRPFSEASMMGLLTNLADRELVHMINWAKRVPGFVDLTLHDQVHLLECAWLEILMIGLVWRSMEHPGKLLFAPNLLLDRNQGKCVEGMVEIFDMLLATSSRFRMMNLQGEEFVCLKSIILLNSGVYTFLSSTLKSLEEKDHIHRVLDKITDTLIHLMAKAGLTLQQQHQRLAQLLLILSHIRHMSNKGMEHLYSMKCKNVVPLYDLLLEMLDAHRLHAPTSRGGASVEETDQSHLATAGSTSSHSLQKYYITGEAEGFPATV
The experiment in a line: Antiestrogenic activity in MCF-7-2a cells as concentration required to reduce estradiol effect by 50%. Format: functional, cell-based.

The subject of experiment [2] is MCF-7 (Homo sapiens). The experiment in a line: Antitumor activity against MCF-7 cells at 5 uM.

`CCCC(=C(c1ccc(O)cc1)c1ccc(O)cc1)c1ccccc1` displayed a Cytotoxicity in the experiment on MCF-7 (Homo sapiens) [1] of 98%. In addition, on Estrogen receptor, inhibition was half-maximal at 50 nM (IC50). In the experiment on MCF-7 (Homo sapiens) [1], `CC(=C(c1ccc(O)cc1)c1ccc(O)cc1)c1ccccc1` gave a Cytotoxicity of 90%. This compound showed an IC50 against Estrogen receptor of 30 nM. At Estrogen receptor, `Oc1ccc(C(=Cc2ccccc2)c2ccc(O)cc2)cc1` yielded a concentration for half-maximal inhibition (IC50) of 150 nM. In addition, the Cytotoxicity in the experiment on MCF-7 (Homo sapiens) [2] is 92%. For `CCCCC(=C(c1ccc(O)cc1)c1ccc(O)cc1)c1ccccc1` the same measures were 500 nM and 87%.

With `CC/C(=C(\c1ccccc1)c1ccc(O)cc1)c1ccccc1`, the half-maximal inhibitory concentration (IC50) on Estrogen receptor turned out to be 7 nM. Also, the Cytotoxicity with MCF-7 (Homo sapiens) [2] came out at 25%.

The compound `CC/C(=C(\c1ccccc1)c1ccc(OCCN(C)C)cc1)c1ccccc1` [TAMOXIFEN] displayed a Cytotoxicity with MCF-7 (Homo sapiens) [2] of 15%. `Oc1ccc(C(=C(CC(F)(F)F)c2ccccc2)c2ccc(O)cc2)cc1` returned a Cytotoxicity with MCF-7 (Homo sapiens) [1] of 68%. The compound also displayed an IC50 against Estrogen receptor of 9 nM. On the same counts, the results for `CCC(=C(c1ccc(O)cc1)c1ccc(O)cc1)c1ccccc1` are 99% and 15 nM.

For the origin of these results see ChEMBL document CHEMBL1135829, “Investigations on estrogen receptor binding. The estrogenic, antiestrogenic, and cytotoxic properties of C2-alkyl-substituted 1,1-bis(4-hydroxyphenyl)-2-phenylethenes” (J Med Chem, 2002).
